Results as given in PubChem BioAssay (NCI).
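Exposure lasted 48 hours, with cells grown in 96-well plates and compounds tested at five concentrations. TGI is the concentration that stops growth completely.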

What was measured:
Experiment in all cases: NCI tumour cell line growth inhibition, 48 h
[1] = test system: NCI/ADR-RES ovarian
[2] = test system: HT29 colon
[3] = test system: SF-539 CNS
[4] = test system: MDA-MB-231 breast
[5] = test system: SW-620 colon
[6] = test system: ACHN renal
[7] = test system: MDA-MB-435
[8] = test system: NCI-H522 lung
[9] = test system: BT-549 breast
[10] = test system: SR leukemia
[11] = test system: SK-MEL-2 melanoma
[12] = test system: A498 renal
[13] = test system: U251 CNS
[14] = test system: DU-145 prostate
[15] = test system: SK-MEL-28 melanoma
[16] = test system: UACC-257 melanoma
[17] = test system: MOLT-4 leukemia
[18] = test system: HOP-62 NSCLC
[19] = test system: SK-MEL-5 melanoma
[20] = test system: RXF 393 renal
[21] = test system: PC-3 prostate
[22] = test system: COLO 205 colon
[23] = test system: MCF7 breast
[24] = test system: NCI-H226 lung
[25] = test system: HS 578T breast
[26] = test system: CCRF-CEM leukemia
[27] = test system: MDA-N
[28] = test system: SNB-19 CNS
[29] = test system: KM12 colon
[30] = test system: NCI-H460 lung
[31] = test system: LOX IMVI melanoma
[32] = test system: HCC-2998 colon
[33] = test system: IGROV1 ovarian
[34] = test system: M14 melanoma
[35] = test system: TK-10 renal
[36] = test system: HCT-15 colon
[37] = test system: SF-268 CNS
[38] = test system: UACC-62 melanoma
[39] = test system: OVCAR-4 ovarian
[40] = test system: K-562 leukemia
[41] = test system: MALME-3M melanoma
[42] = test system: T-47D breast
[43] = test system: SN12C renal
[44] = test system: RPMI-8226 leukemia
[45] = test system: OVCAR-3 ovarian
[46] = test system: NCI-H23 lung
[47] = test system: CAKI-1 renal
[48] = test system: A549 NSCLC
[49] = test system: SF-295 CNS
[50] = test system: OVCAR-5 ovarian
[51] = test system: HCT-116 colon
[52] = test system: 786-0 renal
[53] = test system: OVCAR-8 ovarian
[54] = test system: EKVX NSCLC
[55] = test system: SK-OV-3 ovarian
[56] = test system: HL-60(TB) leukemia
[57] = test system: UO-31 renal
[58] = test system: SNB-75 CNS
[59] = test system: HOP-92 NSCLC

COC(=O)/C=C\[C@H]1[C@H](C)N1S(=O)(=O)c1ccc(C)cc1 (stereo not given in full)
TGI [1]: > 100 µM
TGI [2]: > 100 µM
TGI [3]: > 100 µM
TGI [4]: > 100 µM
TGI [5]: > 100 µM
TGI [6]: > 100 µM
TGI [7]: > 100 µM
TGI [8]: 46 µM
TGI [9]: > 100 µM
TGI [10]: > 100 µM
TGI [11]: > 100 µM
TGI [12]: > 100 µM
TGI [13]: > 100 µM
TGI [14]: > 100 µM
TGI [15]: > 100 µM
TGI [16]: > 100 µM
TGI [17]: > 100 µM
TGI [18]: > 100 µM
TGI [19]: > 100 µM
TGI [20]: > 100 µM
TGI [21]: > 100 µM
TGI [22]: > 100 µM
TGI [23]: > 100 µM
TGI [24]: > 100 µM
TGI [25]: > 100 µM
TGI [26]: > 100 µM
TGI [27]: > 100 µM
TGI [28]: > 100 µM
TGI [29]: > 100 µM
TGI [30]: > 100 µM
TGI [31]: > 100 µM
TGI [32]: > 100 µM
TGI [33]: > 100 µM
TGI [34]: > 100 µM
TGI [35]: > 100 µM
TGI [36]: > 100 µM
TGI [37]: > 100 µM
TGI [38]: > 100 µM
TGI [39]: > 100 µM
TGI [40]: > 100 µM
TGI [41]: > 100 µM
TGI [42]: > 100 µM
TGI [43]: > 100 µM
TGI [44]: > 100 µM
TGI [45]: > 100 µM
TGI [46]: > 100 µM
TGI [47]: > 100 µM
TGI [48]: > 100 µM
TGI [49]: > 100 µM
TGI [50]: > 100 µM
TGI [51]: > 100 µM
TGI [52]: > 100 µM
TGI [53]: > 100 µM
TGI [54]: > 100 µM
TGI [55]: > 100 µM
TGI [56]: > 100 µM

C=C(CCOC)CCC1CCCCC/C1=N\N(C)C (stereo not given)
TGI [1]: > 100 µM
TGI [2]: > 100 µM
TGI [4]: > 100 µM
TGI [5]: > 100 µM
TGI [6]: > 100 µM
TGI [7]: > 100 µM
TGI [8]: > 100 µM
TGI [9]: > 100 µM
TGI [10]: > 100 µM
TGI [11]: > 100 µM
TGI [12]: > 100 µM
TGI [13]: > 100 µM
TGI [57]: > 100 µM
TGI [14]: > 100 µM
TGI [15]: > 100 µM
TGI [17]: > 100 µM
TGI [18]: > 100 µM
TGI [19]: > 100 µM
TGI [20]: > 100 µM
TGI [21]: > 100 µM
TGI [22]: > 100 µM
TGI [23]: > 100 µM
TGI [24]: > 100 µM
TGI [25]: > 100 µM
TGI [26]: > 100 µM
TGI [27]: > 100 µM
TGI [28]: > 100 µM
TGI [29]: > 100 µM
TGI [30]: > 100 µM
TGI [31]: > 100 µM
TGI [32]: > 100 µM
TGI [33]: > 100 µM
TGI [58]: > 100 µM
TGI [34]: > 100 µM
TGI [36]: > 100 µM
TGI [37]: > 100 µM
TGI [38]: > 100 µM
TGI [39]: > 100 µM
TGI [40]: > 100 µM
TGI [41]: > 100 µM
TGI [42]: > 100 µM
TGI [43]: > 100 µM
TGI [44]: > 100 µM
TGI [45]: > 100 µM
TGI [46]: > 100 µM
TGI [47]: > 100 µM
TGI [48]: > 100 µM
TGI [49]: > 100 µM
TGI [50]: > 100 µM
TGI [51]: > 100 µM
TGI [52]: > 100 µM
TGI [53]: > 100 µM
TGI [54]: > 100 µM
TGI [55]: > 100 µM
TGI [56]: > 100 µM

CC(=O)OCC1OC(Nc2ccc3nc(C)n(-c4ccccc4)c(=O)c3c2)C(OC(C)=O)C(OC(C)=O)C1OC(C)=O (stereo not given)
TGI [1]: > 50 µM
TGI [2]: > 50 µM
TGI [4]: > 50 µM
TGI [5]: > 50 µM
TGI [6]: > 50 µM
TGI [7]: > 50 µM
TGI [8]: > 50 µM
TGI [9]: > 50 µM
TGI [10]: > 50 µM
TGI [11]: > 50 µM
TGI [12]: > 50 µM
TGI [13]: > 50 µM
TGI [57]: > 50 µM
TGI [14]: > 50 µM
TGI [15]: > 50 µM
TGI [16]: > 50 µM
TGI [17]: > 50 µM
TGI [18]: > 50 µM
TGI [19]: > 50 µM
TGI [20]: > 50 µM
TGI [21]: > 50 µM
TGI [22]: > 50 µM
TGI [23]: > 50 µM
TGI [24]: > 50 µM
TGI [25]: > 50 µM
TGI [27]: > 50 µM
TGI [28]: > 50 µM
TGI [29]: > 50 µM
TGI [30]: > 50 µM
TGI [31]: > 50 µM
TGI [32]: > 50 µM
TGI [33]: > 50 µM
TGI [58]: > 50 µM
TGI [35]: > 50 µM
TGI [36]: > 50 µM
TGI [37]: > 50 µM
TGI [38]: > 50 µM
TGI [39]: > 50 µM
TGI [40]: > 50 µM
TGI [41]: > 50 µM
TGI [42]: > 50 µM
TGI [43]: > 50 µM
TGI [44]: 20.4 µM
TGI [45]: > 50 µM
TGI [46]: > 50 µM
TGI [47]: > 50 µM
TGI [49]: > 50 µM
TGI [50]: > 50 µM
TGI [51]: > 50 µM
TGI [52]: > 50 µM
TGI [53]: > 50 µM
TGI [54]: > 50 µM
TGI [56]: > 50 µM

O=NN1CCNC1Cc1ccccc1 (stereo not given)
TGI [1]: > 100 µM
TGI [2]: > 100 µM
TGI [3]: > 100 µM
TGI [4]: > 100 µM
TGI [5]: > 100 µM
TGI [6]: > 100 µM
TGI [7]: > 100 µM
TGI [8]: > 100 µM
TGI [9]: > 100 µM
TGI [10]: > 100 µM
TGI [13]: > 100 µM
TGI [57]: > 100 µM
TGI [14]: > 100 µM
TGI [15]: > 100 µM
TGI [16]: > 100 µM
TGI [17]: > 100 µM
TGI [18]: > 100 µM
TGI [19]: > 100 µM
TGI [20]: > 100 µM
TGI [21]: > 100 µM
TGI [22]: > 100 µM
TGI [23]: > 100 µM
TGI [24]: > 100 µM
TGI [25]: > 100 µM
TGI [26]: > 100 µM
TGI [27]: > 100 µM
TGI [28]: > 100 µM
TGI [29]: > 100 µM
TGI [30]: > 100 µM
TGI [31]: > 100 µM
TGI [32]: > 100 µM
TGI [33]: > 100 µM
TGI [58]: 72.6 µM
TGI [34]: > 100 µM
TGI [35]: > 100 µM
TGI [36]: > 100 µM
TGI [37]: > 100 µM
TGI [38]: > 100 µM
TGI [59]: > 100 µM
TGI [39]: > 100 µM
TGI [40]: > 100 µM
TGI [41]: > 100 µM
TGI [42]: > 100 µM
TGI [43]: > 100 µM
TGI [44]: > 100 µM
TGI [45]: > 100 µM
TGI [46]: > 100 µM
TGI [48]: > 100 µM
TGI [49]: > 100 µM
TGI [50]: > 100 µM
TGI [51]: > 100 µM
TGI [52]: > 100 µM
TGI [53]: > 100 µM
TGI [54]: > 100 µM
TGI [55]: > 100 µM
TGI [56]: > 100 µM

CCCCNC(=O)c1cc(S(=O)(=O)n2cc[nH]c2=O)c(SC)cc1Cl
TGI [1]: > 100 µM
TGI [2]: > 100 µM
TGI [3]: > 100 µM
TGI [4]: > 100 µM
TGI [5]: > 100 µM
TGI [6]: > 100 µM
TGI [7]: > 100 µM
TGI [8]: > 100 µM
TGI [9]: > 100 µM
TGI [10]: > 100 µM
TGI [11]: > 100 µM
TGI [12]: 97 µM
TGI [13]: > 100 µM
TGI [57]: > 100 µM
TGI [14]: > 100 µM
TGI [15]: > 100 µM
TGI [16]: > 100 µM
TGI [17]: > 100 µM
TGI [18]: > 100 µM
TGI [19]: > 100 µM
TGI [20]: > 100 µM
TGI [21]: > 100 µM
TGI [22]: > 100 µM
TGI [23]: > 100 µM
TGI [25]: > 100 µM
TGI [26]: > 100 µM
TGI [27]: > 100 µM
TGI [28]: > 100 µM
TGI [29]: > 100 µM
TGI [30]: > 100 µM
TGI [31]: > 100 µM
TGI [32]: > 100 µM
TGI [33]: > 100 µM
TGI [34]: > 100 µM
TGI [35]: > 100 µM
TGI [36]: > 100 µM
TGI [38]: > 100 µM
TGI [39]: > 100 µM
TGI [40]: > 100 µM
TGI [41]: > 100 µM
TGI [42]: > 100 µM
TGI [43]: > 100 µM
TGI [44]: > 100 µM
TGI [45]: > 100 µM
TGI [46]: > 100 µM
TGI [47]: > 100 µM
TGI [48]: > 100 µM
TGI [49]: > 100 µM
TGI [50]: > 100 µM
TGI [51]: > 100 µM
TGI [52]: > 100 µM
TGI [53]: > 100 µM
TGI [54]: > 100 µM
TGI [55]: > 100 µM
TGI [56]: > 100 µM
